Measured values taken from patent US4624950A, “Method for treating atherosclerosis hyperlipidema, lipid deposition on arterial walls, or raising the ratio of high density lipoprotein cholesterol to total cholesterol in serum” (Nissan Chemical Industries Ltd., priority 1983, dated 1986).

What was measured:
[1] = reported for the agent and its derivatives; cited from earlier work
[2] = system: Triton-induced hyperlipidemic rats; test: Antihyperlipidemic activity in Triton-induced hyperlipidemic rats, method A (24 hours) (Test 2); assay type: in vivo, rat (male S.D.)
Method: (§1) Cholesterol in serum was measured by means of a cholesterol measuring kit (Cholesterol C-Test Wako, manufactured by Wako Junyaku Co., Ltd.), and cholesterol in HDL was measured by means of NC Hi-Set, manufactured by Nippon Chemiphar Co., Ltd. The quantitative analysis of triglyceride was conducted by means of a triglyceride measuring kit (Triglyceride C-II-Test Wako, manufactured by Wako Junyaku Co., Ltd.). Further, the change rate in the following Tables, was calculated by the following equation. Change rate(%)=(A-B/A)×100 where A is the amount of serum lipids (mg/dl) of the control group, and B is the amount of serum lipids (mg/dl) of the group to which the therapeutic agent was administered. The antihyperlipidemic activity in Triton-induced hyperlipidemic rats Male S.D. rats weighing 230-250 g (7 weeks old) were divided into groups of 5 rats each and injected with a physiological saline solution of Triton Wr-1339 in a dose of 250 mg/kg (5 ml/kg) i.v. through the tail vein. […] The test compounds suspended in 0.5% CMC-Na were given to the rats in an amount of 2 ml/kg via stomach tube 1 hour before and 5 hours after (in the case of method A) or 1 hour before and 23 hours after (in the case of method B) the injection of Triton solution. Control rats received the same volume of the vehicle. The animals were fasted during the experimental period. The total cholesterol and triglyceride in the serum were measured.

[3] = system: Triton-induced hyperlipidemic rats; test: Antihyperlipidemic activity in Triton-induced hyperlipidemic rats, method B (43 hours) (Test 2); assay type: in vivo, rat (male S.D.)
Method: as §1

[4] = system: cholesterol-fed hyperlipidemic rats; test: Antihyperlipidemic activity in cholesterol-fed hyperlipidemic rats (Test 3); assay type: in vivo, rat (male S.D.)
Method: (§2) It is administered from once to three times per day. The dose may of course be varied depending upon the age, the weight or the condition of illness of the patient. […] In the following tests, the fractionation of lipoproteins was conducted by a dextran sulfate-MgCl2 precipitation method.
(§3) Cholesterol in serum was measured by means of a cholesterol measuring kit (Cholesterol C-Test Wako, manufactured by Wako Junyaku Co., Ltd.), and cholesterol in HDL was measured by means of NC Hi-Set, manufactured by Nippon Chemiphar Co., Ltd. The quantitative analysis of triglyceride was conducted by means of a triglyceride measuring kit (Triglyceride C-II-Test Wako, manufactured by Wako Junyaku Co., Ltd.).
(§4) Further, the change rate in the following Tables, was calculated by the following equation.
Change rate(%)=(A-B/A)×100 where A is the amount of serum lipids (mg/dl) of the control group, and B is the amount of serum lipids (mg/dl) of the group to which the therapeutic agent was administered.
The antihyperlipidemic activity in cholesterol-fed hyperlipidemic rats
Male S.D. rats weighing 80-90 g (30 days old) were divided into groups of 5 rats each. The test compounds suspended in 0.5% CMC-Na were given to the rats in a daily dose of 0.4 ml per 100 g rat via stomach tube every 10:00 a.m. for 7 or 14 days. Control groups were given an equal volume of the vehicle. […] The total cholesterol, triglyceride and HDL cholesterol in serum were measured. After sacrificed, the livers were excised, washed with physiological saline, blotted on filter paper and weighed. The degree of hepatomegaly was calculated by the following equation.
Degree of hepatomegaly (%)=(D-C/C)×100 where C is the liver weight (g) per 100 g body weight in the control animal, and D is the liver weight (g) per 100 g body weight in the drug treated animal.

[5] = system: emulsion-induced hyperlipidemic rats; test: Antihyperlipidemic activity in emulsion-induced hyperlipidemic rats (Test 1); assay type: in vivo, rat (male S.D.); conditions: 300 mg/kg/day p.o., 3 days
Method: The daily dose of the compound of the formula I is from 0.01 to 3.0 g, preferably from 0.1 to 1.5 g, for an adult. It is administered from once to three times per day. The dose may of course be varied depending upon the age, the weight or the condition of illness of the patient. Now, the usefulness of the compound of the formula I as an antiatherosclerotic agent will be shown by tests. In the following tests, the fractionation of lipoproteins was conducted by a dextran sulfate-MgCl2 precipitation method.
as §3, §4
(§5) Change rate(%)=(A-B/A)×100
(§6) where A is the amount of serum lipids (mg/dl) of the control group, and B is the amount of serum lipids (mg/dl) of the group to which the therapeutic agent was administered.
The antihyperlipidemic activity in emulsion-induced hyperlipidemic rats
Male S.D. rats weighing 80-90 g (4 weeks old) were used. They were divided into groups of 5 to 6 rats each. The test compounds suspended in 0.5% CMC-Na(carboxymethyl cellulose sodium salt) were given to the rats in a daily dose of 4 ml/kg via stomach tube every 10:00 a.m. After 30 min., lipids emulsion having the following composition was orally given to the rats in an amount of 2.5 ml per rat. During the experimental period of 3 days, the rats were fed on a standard commercial diet and water ad libitum. […] The total cholesterol and triglyceride, and HDL cholesterol were measured.

[6] = animal experiments; Svoboda and Azarnoff, Cancer Res. 39, 3419 (1979); cited from earlier work
normal rats = test: Activities against serum lipid, degree of hepatomegaly and GOT/GPT in normal rats (Test 5); assay type: in vivo, rat (male S.D.); conditions: 300 mg/kg/day, seven days
Method: as §2, §3, §4, §5, §6
The activities against serum lipid, the degree of hepatomegaly and the hepatic drug metabolizing systems of normal rats
Male S.D. rats (6 weeks old) were divided into groups of 5 rats each. The test compounds suspended in 5% gum arabic were given to the rats once a day for seven days in a daily dose of 300 mg/kg. Then, the rats were fasted for one day, blood samples were taken, and the total cholesterol, triglyceride, HDL-cholesterol in the serum were quantitatively analyzed. Further, the liver weight was measured, and the degree of hepatomegaly was determined by comparing the weight ratio per 100 g of the body weight with that of the control group. Furthermore, GOT and GPT values were measured, and the activities of cytochrome P-450 and glutathione related enzymes were also measured. These values were compared with those of the control groups to investigate any abnormality.

O=C(O)c1cccnc1 [nicotinic acid]
Reported side effects [1]: flashing or gastroenteric troubles

CCC(C)(Oc1ccc(C2(c3ccc(OC(C)(CC)C(=O)O)cc3)CCCCC2)cc1)C(=O)O (stereo not shown) [Clinofibrate]
Change rate after 24 hours, Chol ([2]; 150 mg/kg p.o.): -21.0% | Change rate after 24 hours, TG ([2]; 150 mg/kg p.o.): -33.0% | Change rate after 43 hours, Chol ([3]; 150 mg/kg p.o.): -38.0% | Change rate after 43 hours, TG ([3]; 150 mg/kg p.o.): -52.0%

CCOC(=O)C(C)(C)Oc1ccc(Cl)cc1 [Clofibrate, reference compound]
Change rate after 24 hours, Chol ([2]; 300 mg/kg p.o.): -5.0% | Change rate after 24 hours, TG ([2]; 300 mg/kg p.o.): +89.7% | Change rate, HDL-Chol ([4]; 7th day, 50 mg/kg/day p.o.): -20.4% | Change rate, TG ([4]; 7th day, 50 mg/kg/day p.o.): +8.7% | Change rate, Total-Chol ([4]; 7th day, 50 mg/kg/day p.o.): -4.3% | Degree of hepatomegaly ([4]; 7th day, 50 mg/kg/day p.o.): +6.0% | Serum lipid, HDL-Chol ([4]; 7th day, 50 mg/kg/day p.o.): 14.4 mg/dL | Serum lipid, TG ([4]; 7th day, 50 mg/kg/day p.o.): 133.5 mg/dL | Serum lipid, Total-Chol ([4]; 7th day, 50 mg/kg/day p.o.): 417.5 mg/dL | Change rate, HDL-Chol ([4]; 7th day, 150 mg/kg/day p.o.): -34.8% | Change rate, TG ([4]; 7th day, 150 mg/kg/day p.o.): -9.0% | Change rate, Total-Chol ([4]; 7th day, 150 mg/kg/day p.o.): -23.8% | Degree of hepatomegaly ([4]; 7th day, 150 mg/kg/day p.o.): +20.0% | Serum lipid, HDL-Chol ([4]; 7th day, 150 mg/kg/day p.o.): 11.8 mg/dL | Serum lipid, TG ([4]; 7th day, 150 mg/kg/day p.o.): 111.8 mg/dL | Serum lipid, Total-Chol ([4]; 7th day, 150 mg/kg/day p.o.): 332.2 mg/dL | Change rate, HDL-Chol ([4]; 14th day, 50 mg/kg/day p.o.): +8.0% | Change rate, TG ([4]; 14th day, 50 mg/kg/day p.o.): -30.1% | Change rate, Total-Chol ([4]; 14th day, 50 mg/kg/day p.o.): -28.5% | Degree of hepatomegaly ([4]; 14th day, 50 mg/kg/day p.o.): +8.8% | Serum lipid, HDL-Chol ([4]; 14th day, 50 mg/kg/day p.o.): 9.4 mg/dL | Serum lipid, TG ([4]; 14th day, 50 mg/kg/day p.o.): 116.6 mg/dL | Serum lipid, Total-Chol ([4]; 14th day, 50 mg/kg/day p.o.): 418.4 mg/dL | Change rate, HDL-Chol ([4]; 14th day, 150 mg/kg/day p.o.): +68.1% | Change rate, TG ([4]; 14th day, 150 mg/kg/day p.o.): -29.8% | Change rate, Total-Chol ([4]; 14th day, 150 mg/kg/day p.o.): -28.3% | Degree of hepatomegaly ([4]; 14th day, 150 mg/kg/day p.o.): +22.8% | Serum lipid, HDL-Chol ([4]; 14th day, 150 mg/kg/day p.o.): 15.8 mg/dL | Serum lipid, TG ([4]; 14th day, 150 mg/kg/day p.o.): 117.7 mg/dL | Serum lipid, Total-Chol ([4]; 14th day, 150 mg/kg/day p.o.): 420.0 mg/dL | Serum lipid, HDL-Chol [5]: 16.8 mg/dL | Serum lipid, TG [5]: 87.7 mg/dL | Serum lipid, Total Chol [5]: 96.4 mg/dL | Change rate, HDL-Chol ([5]; vs control): +37.0% | Change rate, TG ([5]; vs control): -42.7% | Change rate, Total Chol ([5]; vs control): -63.5% | Reported side effects [1]: myalgia or hepatic insufficiency, and they are likely to lead to gallstone formation | Change rate after 43 hours, Chol ([3]; 300 mg/kg p.o.): -0.5% | Change rate after 43 hours, TG ([3]; 300 mg/kg p.o.): +150.1% | Hepatic carcinoma [6]: brings about hepatic carcinoma | Serum lipid, HDL-Chol (normal rats): 11.0 mg/dL | Serum lipid, TG (normal rats): 39.2 mg/dL | Serum lipid, Total-Chol (normal rats): 20.6 mg/dL | Change rate, HDL-Chol (normal rats; vs control): -62.7% | Change rate, TG (normal rats; vs control): -17.5% | Change rate, Total-Chol (normal rats; vs control): -56.0% | Degree of hepatomegaly (normal rats; vs control): +72.0%
